Measured values: US20260337156A1, “SOLUBILIZING COMPOUNDS” (Vivesto AB, priority 2022, published 2026)
One block for each molecule: values may come before it.

Experiment: micellar particle size and polydispersity index (ZetaSizer, dynamic light scattering) of drug formulations at different dilutions
Format: physicochemical
Description: The particle size of the micelles in the composition is typically in the range of about 5 to about 150 nm. The particle size may be determined e.g. using Dynamic Light Scattering (DLS) in 0.9% NaCl at 1 mg/mL drug concentration, preferably using a red laser with a wavelength of 633 nm.
Micellar size was measured using a ZetaSizer from Malvern Panalytical. […]
20 mg of example 1 was dispensed into a 25 mL round bottom flask and dissolved in methanol (3 mL). 800 μL of a stock solution of docetaxel in methanol (5 mg/mL) was added. The solution was evaporated to dryness in a rotary evaporator. Final drying was performed in a desiccator to remove residual solvent. Hydration of the dried film was performed by adding water for injection (1.0 mL) to a concentration of 4 mg/mL of docetaxel. The 4 mg/mL concentration was further diluted with 0.9% sodium chloride according to the table below. […]
A serial dilution was performed for the system docetaxel:compound 1. A stock solution of docetaxel in methanol was mixed with a stock solution of the micelle forming agent (compound 1) in a round bottom flask at a weight ratio of 1:5. The mixture was evaporated to dryness in a rotary evaporator. Final drying was performed in a desiccator to remove residual solvent. Hydration of the dried film was performed by adding water for injection (1.0 mL) to a concentration of 1 mg/mL of docetaxel. The resulting solution was filtered through a 0.22 μm sterile filter and further diluted with 0.9% sodium chloride solution.
4.5 mg of compound 1 was dispensed into a 25 mL round bottom flask and dissolved in methanol (2 mL). 1500 μL of a stock solution of cabazitaxel in methanol (1.00 mg/mL) was added. The solution was evaporated to dryness in a rotary evaporator. Final drying was performed in a desiccator to remove residual solvent. […]

[1] = micelles with cabazitaxel, ratio 3:1, 0.9% NaCl, cabazitaxel conc. 0.25 mg/mL
[2] = micelles with cabazitaxel, ratio 3:1, 0.9% NaCl, cabazitaxel conc. 0.5 mg/mL
[3] = micelles with cabazitaxel, ratio 3:1, 0.9% NaCl, cabazitaxel conc. 1 mg/mL
[4] = micelles with cyclosporin, ratio 3:1, 0.9% NaCl, cyclosporin conc. 0.25 mg/mL
[5] = micelles with cyclosporin, ratio 3:1, 0.9% NaCl, cyclosporin conc. 0.5 mg/mL
[6] = micelles with cyclosporin, ratio 3:1, 0.9% NaCl, cyclosporin conc. 1 mg/mL
[7] = micelles with docetaxel, ratio 3:1, 0.9% NaCl, docetaxel conc. 0.25 mg/mL
[8] = micelles with docetaxel, ratio 3:1, 0.9% NaCl, docetaxel conc. 0.5 mg/mL
[9] = micelles with docetaxel, ratio 3:1, 0.9% NaCl, docetaxel conc. 1 mg/mL
[10] = micelles with docetaxel, ratio 5:1, docetaxel conc. 0.25 mg/mL
[11] = micelles with docetaxel, ratio 5:1, docetaxel conc. 0.5 mg/mL
[12] = micelles with docetaxel, ratio 5:1, docetaxel conc. 1 mg/mL
[13] = micelles with docetaxel, 1.2 mg docetaxel + 3.8 mg compound, water 1.2 mL + 0.9% NaCl 1.0 mL
[14] = serial dilution, docetaxel:compound 1:5, compound conc. 0.08 mM
[15] = serial dilution, docetaxel:compound 1:5, compound conc. 0.12 mM
[16] = serial dilution, docetaxel:compound 1:5, compound conc. 0.15 mM
[17] = serial dilution, docetaxel:compound 1:5, compound conc. 0.3 mM
[18] = serial dilution, docetaxel:compound 1:5, compound conc. 0.6 mM
[19] = serial dilution, docetaxel:compound 1:5, compound conc. 1.2 mM
[20] = serial dilution, docetaxel:compound 1:5, compound conc. 2.4 mM
[21] = serial dilution, docetaxel:compound 1:5, compound conc. 4.8 mM
[22] = micelles with docetaxel, ratio 2:1, 0.9% NaCl, docetaxel conc. 0.25 mg/mL
[23] = micelles with docetaxel, ratio 2:1, 0.9% NaCl, docetaxel conc. 0.5 mg/mL
[24] = micelles with docetaxel, ratio 2:1, 0.9% NaCl, docetaxel conc. 1 mg/mL

- Particle size [1]: 121.2 nm
- Polydispersity index [1]: 0.079
- Particle size [2]: 111.2 nm
- Polydispersity index [2]: 0.102
- Particle size [3]: 87.6 nm
- Polydispersity index [3]: 0.145
- Particle size [4]: 60.1 nm
- Polydispersity index [4]: 0.258
- Particle size [5]: 53.3 nm
- Polydispersity index [5]: 0.293
- Particle size [6]: 41.7 nm
- Polydispersity index [6]: 0.212
- Particle size [7]: 56.0 nm
- Polydispersity index [7]: 0.29
- Particle size [8]: 52.6 nm
- Polydispersity index [8]: 0.25
- Particle size [9]: 47.7 nm
- Polydispersity index [9]: 0.24
- Particle size [10]: 49.6 nm
- Polydispersity index [10]: 0.25
- Particle size [11]: 41.5 nm
- Polydispersity index [11]: 0.24
- Particle size [12]: 29.2 nm
- Polydispersity index [12]: 0.24
- Particle size [13]: 7.0 nm
- Polydispersity index [13]: 0.20
- Particle size [14]: 33.73 nm
- Polydispersity index, pdi [14]: 0.45
- Particle size [15]: 32.72 nm
- Polydispersity index, pdi [15]: 0.39
- Particle size [16]: 34.06 nm
- Polydispersity index, pdi [16]: 0.34
- Particle size [17]: 37.85 nm
- Polydispersity index, pdi [17]: 0.25
- Particle size [18]: 36.53 nm
- Polydispersity index, pdi [18]: 0.18
- Particle size [19]: 36.5 nm
- Polydispersity index, pdi [19]: 0.16
- Particle size [20]: 36.2 nm
- Polydispersity index, pdi [20]: 0.14
- Particle size [21]: 35.4 nm
- Polydispersity index, pdi [21]: 0.11
Compound: COc1cc(C)c(/C=C/C(C)=C/C=C/C(C)=C/C(=O)N(CCS(=O)(=O)[O-])C2CCCCC2)c(C)c1C.[Na+] [Compound 1]
- trend of micellar size and RSD during dilution (docetaxel:compound 1:5, serial dilution with 0.9% NaCl): The micellar size and RSD showed no significant trend during dilution

- Particle size [22]: 14.0 nm
- Polydispersity index [22]: 0.53
- Particle size [23]: 19.9 nm
- Polydispersity index [23]: 0.76
- Particle size [24]: 13.5 nm
- Polydispersity index [24]: 0.52
- Particle size [7]: 11.8 nm
- Polydispersity index [7]: 0.27
- Particle size [8]: 11.3 nm
- Polydispersity index [8]: 0.25
- Particle size [9]: 9.30 nm
- Polydispersity index [9]: 0.33
Compound: COc1cc(C)c(/C=C/C(C)=C/C=C/C(C)=C/C(=O)N(C)CCS(=O)(=O)[O-])c(C)c1C.[Na+] [Compound 3]
